Measurements from US20190175601A1, “COMPOSITION FOR INHIBITING OR ALLEVIATING ITCHING INCLUDING RIBOFLAVIN” (INDUSTRY-UNIVERSITY COOPERATION FOUNDATION HANYANG …, priority 2016, published 2019).

How the values were obtained:
[1] = tested on: histamine-induced itching; test: Histamine-induced itching animal behavioral test, preparation for transdermal administration; type: in vivo, male C57BL/6 mice
Procedure: An effect of inhibiting or alleviating itching was tested using the preparation for transdermal administration prepared according to Preparation Example 2. For the test, an animal behavioral experiment was carried out in the same manner as in Experimental Example 1.
In particular, 30 minutes before 100 μg/50 μl of histamine was injected, the preparation for transdermal administration was applied on the skin, and then the preparation was removed 5 minutes before histamine was injected.

[2] = tested on: skin-afferent nerve tissue; test: Histamine-induced peripheral nerve activity in preserved skin-afferent nerve tissue; settings: histamine administered to the sole of the foot; FIG. 3
Procedure: Histamine-induced itching is known to occur through peripheral nerve excitation. In the present experimental example, it was examined whether histamine-induced peripheral nerve activity was blocked by riboflavin.
After securing preserved skin-afferent nerve tissue, histamine was administered to the sole of the foot to confirm nerve activity, and such histamine-induced nerve activity was blocked by riboflavin (see FIG. 3).

[3] = tested on: histamine-induced itching; test: Histamine-induced itching animal behavioral test, preparations for oral administration; type: in vivo, male C57BL/6 mice; settings: FIG. 1
Procedure: An effect of inhibiting or alleviating itching was tested using the preparations for oral administration prepared according to Preparation Example 1. For the test, an animal behavioral test was performed using the mouse model disclosed in Non-Patent Document 6.
Groups each including 10 male C57BL/6 mice weighing 20 g to 23 g were used in the test. These groups were accommodated under control of a temperature of 23° C. to 25° C. The mice were freely fed food and water. For the itching-induced animal behavioral model test, the mice were orally administered the preparations for oral administration having different concentrations of riboflavin, which were prepared according to Preparation Example 1 (100 mg/kg, 300 mg/kg, or 600 mg/kg). In addition, the mice were treated with the control prepared according to Preparation Example 1.
To induce scratching, histamine, which is known to cause an itching sensation in humans, was used. At this time, histamine was dissolved in sterile physiological saline. 30 minutes after administration of the preparations for oral administration, 50 μl (500 μg/site) of histamine was injected intradermally into the back of the neck of each mouse.
The results were analyzed by calculating the mean and standard deviation, and a statistical difference of mean values was determined using a Student's t-test.

TRPV1 = biological target: T1, TRPV1 (Homo sapiens, UniProt Q8NER1); test: Capsaicin current blocking in TRPV1-expressing HEK293 cells; type: cell-based; settings: TRPV1-expressing HEK 293 cells
T1 construct: expressed in transfected cells; host or cells: HEK 293 cells
Source text: TRPV1 was expressed in HEK 293 cells to carry out a capsaicin current blocking experiment. Under these conditions, riboflavin excluded other channels and a direct effect of riboflavin was examined. The results are illustrated in FIG. 5. FIG. 5 illustrates results of confirming that a capsaicin-induced current was inhibited by riboflavin.

[4] = tested on: spinal cord dorsal root ganglion cells; test: Histamine-induced current, membrane voltage clamp method; type: cell-based; settings: primary cultured mouse dorsal root ganglion cells, FIG. 4
Procedure: In addition, to confirm an effect of riboflavin on blocking histamine-induced peripheral nerve activity, it was examined using a membrane voltage clamp method whether a histamine-induced current was inhibited by riboflavin.
To this end, spinal cord dorsal root ganglion cells of each mouse were isolated and primarily cultured, and then electrophysiological characteristics of the spinal cord dorsal root ganglion cells were recorded using the membrane voltage clamp method.

[5] = tested on: histamine-induced itching; test: Histamine-induced itching animal behavioral test, local intradermal injection co-administered with histamine; type: in vivo, male C57BL/6 mice; settings: 1 μM/50 μl intradermal, at the same time as histamine 100 μg/site; FIG. 2
Procedure: An effect of inhibiting or alleviating itching was tested using the local intradermal injection prepared according to Preparation Example 1.
The test was carried out in the same manner as in Experimental Example 1, except for the following. For the itching-induced animal behavioral model test, 1 μM/50 μl of the local intradermal injection prepared according to Preparation Example 1 was injected intradermally into the back of the neck of each mouse. In addition, upon administration of the preparation, 50 μl (100 μg/site) of histamine was injected intradermally at the same time.

T1 sequence (Q8NER1 whole entry, species assumed): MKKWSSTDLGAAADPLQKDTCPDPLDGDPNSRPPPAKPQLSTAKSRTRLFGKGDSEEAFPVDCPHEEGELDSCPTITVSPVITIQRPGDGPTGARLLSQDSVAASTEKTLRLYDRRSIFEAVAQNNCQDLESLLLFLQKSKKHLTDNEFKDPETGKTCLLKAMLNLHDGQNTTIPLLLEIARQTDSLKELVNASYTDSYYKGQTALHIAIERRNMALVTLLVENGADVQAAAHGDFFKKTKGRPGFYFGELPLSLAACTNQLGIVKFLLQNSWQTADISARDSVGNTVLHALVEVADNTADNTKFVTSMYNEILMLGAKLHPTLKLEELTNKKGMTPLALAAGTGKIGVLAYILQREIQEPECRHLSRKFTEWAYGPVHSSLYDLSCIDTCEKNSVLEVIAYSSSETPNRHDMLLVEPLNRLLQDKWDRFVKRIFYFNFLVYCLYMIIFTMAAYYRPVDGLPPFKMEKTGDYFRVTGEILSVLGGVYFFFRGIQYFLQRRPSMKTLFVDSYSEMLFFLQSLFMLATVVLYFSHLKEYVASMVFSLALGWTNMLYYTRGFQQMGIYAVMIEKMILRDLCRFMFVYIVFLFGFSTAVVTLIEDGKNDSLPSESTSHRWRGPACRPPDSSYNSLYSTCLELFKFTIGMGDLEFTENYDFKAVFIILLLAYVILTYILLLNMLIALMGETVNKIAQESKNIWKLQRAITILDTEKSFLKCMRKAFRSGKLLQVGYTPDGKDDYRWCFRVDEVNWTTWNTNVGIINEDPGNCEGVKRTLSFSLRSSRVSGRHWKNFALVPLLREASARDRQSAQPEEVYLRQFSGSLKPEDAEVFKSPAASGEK

| SMILES | histamine-induced itching responses ([1]; 1 mM in Vaseline cream on skin 30 minutes before histamine 100 μg/50 μl, removed 5 minutes before, observed 30 minutes, FIG. 8) | itching behavioral responses (number of times) ([1]; 1 mM transdermal preparation, control 142 times, 30 minutes) | histamine-induced nerve activity [2] | dose dependence of effect on inhibiting histamine-induced itching ([3]; oral 100, 300, 600 mg/kg) | histamine-induced itching responses (number of scratches) ([3]; oral 100, 300 or 600 mg/kg, 30 minutes before histamine 500 μg/site intradermal, observed 30 minutes) | capsaicin-induced current blocking effect at 100 nM (TRPV1; 100 nM) | capsaicin-induced current blocking effect (TRPV1; several concentrations, FIG. 5) | histamine-induced inward current [4] | histamine-induced itching responses (number of scratches) [5] |
| --- | --- | --- | --- | --- | --- | --- | --- | --- | --- |
| Cc1cc2nc3c(=O)[nH]c(=O)nc-3n(C[C@H](O)[C@H](O)[C@H](O)CO)c2cc1N(C)C [roseoflavin, 8-demethyl-8-(dimethylamino)-riboflavin] | itching responses were reduced | 60 times |  |  |  |  |  |  |  |
| Cc1cc2nc3c(=O)[nH]c(=O)nc-3n(C[C@H](O)[C@H](O)[C@H](O)CO)c2cc1C [riboflavin] |  |  | blocked | dose-dependent pattern | itching responses were reduced | did not effectively block TRPV1 | statistically significant effect of blocking channels in a concentration-dependent manner | the current is blocked | itching responses were reduced |
